Measured values taken from patent publication US8969405B2, “Anticancer compounds and methods of making and using same” (St. Jude Children's Research Hospital, priority 2008, dated 2015).

Columns and labels:
[1] = test system: JeKo-1 mantle cell lymphoma cell line; assay: In vitro cytotoxicity analysis (XTT), 72-hour exposure; type: cell-based; details: Homo sapiens, JEKo1 cells
Procedure: (§1) Briefly, cell lines were seeded at various cell densities depending on the cell type.
(§2) Tables 1-3 display cytotoxicity data for exemplary compounds following a 72-hour exposure.

[2] = test system: PC-3 prostate cancer cell line; assay: as above; type: cell-based; details: Homo sapiens, PC3 cells
Procedure: as §1, §2

[3] = test system: JVM-2 mantle cell lymphoma cell line; assay: as above; type: cell-based; details: Homo sapiens, JVM-2 cells
Procedure: as §1, §2

[4] = test system: WiDr colorectal cancer cell line; assay: as above; type: cell-based; details: Homo sapiens, read-out: Cytotoxicity IC50
Procedure: as §1

[5] = Stability study in buffer solution by HPLC; type: physicochemical; details: 100 μM in PBS, pH 7.4
Procedure: Stability studies were performed for exemplary compounds 48 and 15. A 100 μM solution of compound 48 was prepared in buffer (PBS, pH 7.4) and warfarin was used as an internal standard. A sample was injected into a HPLC periodically starting at day 0 and ending at about 6 weeks to find out the stability of compound 48 in PBS solution. […] After 6 weeks, 58% of compound 48 remained in the buffer solution.

Compound `CC(/C=C/[C@@H]1C[C@]2(CO2)CC(C)(C)O1)=C\C[C@H]1CC[C@@H](NC(=O)/C=C\[C@H](C)OC(=O)C2CCN(C)CC2)CC1` [Compound 16, (S,Z)-5-((1R,4R)-4-((2E,4E)-5-((3R,5S)-7,7-dimethyl-1,6-dioxaspiro[2.5]octan-5-yl)-3-methylpenta-2,4-dienyl)cyclohexylamino)-5-oxopent-3-en-2-yl 1-methylpiperidine-4-carboxylate] has an IC50 [1] greater than 1 µM and an IC50 [2] of 10 µM.

Compound `CC(/C=C/[C@@H]1C[C@]2(CO2)CC(C)(C)O1)=C\C[C@H]1CC[C@@H](NC(=O)/C=C\[C@H](C)OC(=O)C2CCOCC2)CC1` [Compound 17, (S,Z)-5-((1R,4R)-4-((2E,4E)-5-((3R,5S)-7,7-dimethyl-1,6-dioxaspiro[2.5]octan-5-yl)-3-methylpenta-2,4-dienyl)cyclohexylamino)-5-oxopent-3-en-2-yl tetrahydro-2H-pyran-4-carboxylate] has an IC50 [1] of 0.44 µM and an IC50 [2] of 1.97 µM.

`CC(/C=C/[C@@H]1C[C@]2(CO2)CC(C)(C)O1)=C\C[C@H]1CC[C@@H](NC(=O)/C=C\[C@H](C)OC(=O)c2ccco2)CC1` [Compound 18, (S,Z)-5-((1R,4R)-4-((2E,4E)-5-((3R,5S)-7,7-dimethyl-1,6-dioxaspiro[2.5]octan-5-yl)-3-methylpenta-2,4-dienyl)cyclohexylamino)-5-oxopent-3-en-2-yl furan-2-carboxylate] gave an IC50 [1] of 0.14 µM and an IC50 [2] of 3.5 µM.

Compound `CC(/C=C/[C@@H]1C[C@]2(CO2)CC(C)(C)O1)=C\C[C@H]1CC[C@@H](NC(=O)/C=C\[C@H](C)OC(=O)c2cccn2C)CC1` [Compound 19, (S,Z)-5-((1R,4R)-4-((2E,4E)-5-((3R,5S)-7,7-Dimethyl-1,6-dioxaspiro[2.5]octan-5-yl)-3-methylpenta-2,4-dienyl)cyclohexylamino)-5-oxopent-3-en-2-yl 1-methyl-1H-pyrrole-2-carboxylate] has an IC50 [1] of 0.39 µM and an IC50 [2] of 4.3 µM.

`CC(/C=C/[C@@H]1C[C@]2(CO2)CC(C)(C)O1)=C\C[C@H]1CC[C@@H](NC(=O)/C=C\[C@H](C)OC(=O)c2ccccc2)CC1` [Compound 20, (S,Z)-5-((1R,4R)-4-((2E,4E)-5-((3R,5S)-7,7-dimethyl-1,6-dioxaspiro[2.5]octan-5-yl)-3-methylpenta-2,4-dienyl)cyclohexylamino)-5-oxopent-3-en-2-yl benzoate] gave an IC50 [1] of 0.41 µM and an IC50 [2] of 4.9 µM.

With `CC(/C=C/[C@@H]1C[C@]2(CO2)CC(C)(C)O1)=C\C[C@H]1CC[C@@H](NC(=O)/C=C\[C@H](C)OC(=O)c2cccnc2)CC1` [Compound 21, (S,Z)-5-((1R,4R)-4-((2E,4E)-5-((3R,5S)-7,7-dimethyl-1,6-dioxaspiro[2.5]octan-5-yl)-3-methylpenta-2,4-dienyl)cyclohexylamino)-5-oxopent-3-en-2-yl nicotinate] the IC50 [1] was 0.16 µM and the IC50 [2] was 8.1 µM.

Work on `CC(/C=C/[C@@H]1C[C@]2(CO2)CC(C)(C)O1)=C\C[C@H]1CC[C@@H](NC(=O)/C=C\[C@H](C)OC(=O)C2CCN(c3ccnc(C(F)(F)F)n3)CC2)CC1` [Compound 22, (S,Z)-5-((1R,4R)-4-((2E,4E)-5-((3R,5S)-7,7-dimethyl-1,6-dioxaspiro[2.5]octan-5-yl)-3-methylpenta-2,4-dienyl)cyclohexylamino)-5-oxopent-3-en-2-yl 1-(2-(trifluoromethyl)pyrimidin-4-yl)piperidine-4-carboxylate] yielded an IC50 [1] greater than 1 µM and an IC50 [2] greater than 10 µM.

For `CC(/C=C/[C@@H]1C[C@]2(CO2)CC(C)(C)O1)=C\C[C@H]1CC[C@@H](NC(=O)/C=C\[C@H](C)OC(=O)C(C)(C)C)CC1` [Compound 23, (S,Z)-5-((1R,4R)-4-((2E,4E)-5-((3R,5S)-7,7-dimethyl-1,6-dioxaspiro[2.5]octan-5-yl)-3-methylpenta-2,4-dienyl)cyclohexylamino)-5-oxopent-3-en-2-yl pivalate], the IC50 [1] was 0.03 µM and the IC50 [2] was 0.76 µM.

In the case of `CC(/C=C/[C@@H]1C[C@]2(CO2)CC(C)(C)O1)=C\C[C@H]1CC[C@@H](NC(=O)/C=C\[C@H](C)OC(=O)N2CCN(C3CCCCCC3)CC2)CC1` [Compound 24, (S,Z)-5-((1R,4R)-4-((2E,4E)-5-((3R,5S)-7,7-dimethyl-1,6-dioxaspiro[2.5]octan-5-yl)-3-methylpenta-2,4-dienyl)cyclohexylamino)-5-oxopent-3-en-2-yl 4-cycloheptylpiperazine-1-carboxylate], the IC50 [3] is reported as greater than 1 µM and the IC50 [2] is reported as greater than 0.5 µM.

In the case of `COc1cccc(N2CCN(C(=O)O[C@@H](C)/C=C\C(=O)N[C@H]3CC[C@@H](C/C=C(C)/C=C/[C@@H]4C[C@]5(CO5)CC(C)(C)O4)CC3)CC2)c1` [Compound 25, (S,Z)-5-((1R,4R)-4-((2E,4E)-5-((3R,5S)-7,7-dimethyl-1,6-dioxaspiro[2.5]octan-5-yl)-3-methylpenta-2,4-dienyl)cyclohexylamino)-5-oxopent-3-en-2-yl 4-(3-methoxyphenyl)piperazine-1-carboxylate], the IC50 [3] is reported as greater than 0.5 µM, the IC50 [1] is reported as greater than 0.5 µM and the IC50 [2] is reported as greater than 2.5 µM. The IC50 [4] was greater than 1.25 µM.

Work on `CC(/C=C/[C@@H]1C[C@]2(CO2)CC(C)(C)O1)=C\C[C@H]1CC[C@@H](NC(=O)/C=C\[C@H](C)OC(=O)N2CCN(C)CC2)CC1` [Compound 26, (S,Z)-5-((1R,4R)-4-((2E,4E)-5-((3R,5S)-7,7-dimethyl-1,6-dioxaspiro[2.5]octan-5-yl)-3-methylpenta-2,4-dienyl)cyclohexylamino)-5-oxopent-3-en-2-yl 4-methylpiperazine-1-carboxylate] yielded an IC50 [3] greater than 0.5 µM, an IC50 [1] greater than 0.5 µM and an IC50 [2] greater than 2.5 µM. The IC50 [4] was greater than 0.5 µM.

`CC(/C=C/[C@@H]1C[C@]2(CO2)CC(C)(C)O1)=C\C[C@H]1CC[C@@H](NC(=O)/C=C\[C@H](C)OC(=O)N2CCN(CCO)CC2)CC1` [Compound 27, (S,Z)-5-((1R,4R)-4-((2E,4E)-5-((3R,5S)-7,7-dimethyl-1,6-dioxaspiro[2.5]octan-5-yl)-3-methylpenta-2,4-dienyl)cyclohexylamino)-5-oxopent-3-en-2-yl 4-(2-hydroxyethyl)piperazine-1-carboxylate] gave an IC50 [3] greater than 0.5 µM, an IC50 [1] greater than 0.5 µM and an IC50 [2] greater than 2.5 µM. The IC50 [4] was greater than 1.25 µM.

Compound `CC(/C=C/[C@@H]1C[C@](O)(CCl)CC(C)(C)O1)=C\C[C@H]1CC[C@@H](NC(=O)/C=C\[C@H](C)OC(=O)N2CCN(C3CCCCCC3)CC2)CC1` [Compound 28, (S,Z)-5-((1R,4R)-4-((2E,4E)-5-((2S,4R)-4-(chloromethyl)-4-hydroxy-6,6-dimethyltetrahydro-2H-pyran-2-yl)-3-methylpenta-2,4-dienyl)cyclohexylamino)-5-oxopent-3-en-2-yl 4-cycloheptylpiperazine-1-carboxylate] has an IC50 [3] greater than 10 µM, an IC50 [2] greater than 5 µM and an IC50 [4] greater than 1.25 µM.

For `CC(/C=C/[C@H]1OCC[C@@]2(CO2)[C@@H]1O)=C\C[C@H]1CC[C@@H](NC(=O)/C=C\[C@H](C)OC(=O)C(C)C)CC1` [Compound 38, (S,Z)-5-((1S,4R)-4-((2E,4E)-5-((3R,4R,5R)-4-hydroxy-1,6-dioxaspiro[2.5]octan-5-yl)-3-methylpenta-2,4-dienyl)cyclohexylamino)-5-oxopent-3-en-2-yl isobutyrate], the IC50 [1] was greater than 1 µM and the IC50 [2] was greater than 10 µM.

For `CC(/C=C/[C@@H]1C[C@]2(CO2)CC(C)(C)O1)=C\C[C@H]1OC[C@@H](NC(=O)/C=C\[C@H](C)OC(=O)C(C)C)CO1` [Compound 48, (S,Z)-5-((2R,5R)-2-((2E,4E)-5-((3R,5S)-7,7-dimethyl-1,6-dioxaspiro[2.5]octan-5-yl)-3-methylpenta-2,4-dienyl)-1,3-dioxan-5-ylamino)-5-oxopent-3-en-2-yl isobutyrate], the IC50 [1] was 0.17 µM, the IC50 [2] was 5.2 µM and the “compound remaining in the buffer solution” value ([5]; after 6 weeks) was 58%. The degradable products ([5]; after 1 day) was “No degradable products were found” and the half-life at 100 μM ([5]; PBS buffer, read-out: calculated half life (converted)) was 50.4 days.

`CC(/C=C/[C@@H]1C[C@]2(CO2)CC(C)(C)O1)=C\C[C@H]1OC[C@@H](NC(=O)/C=C\[C@H](C)OC(=O)C(C)(C)C)CO1` [Compound 49, (S,Z)-5-((2R,5R)-2-((2E,4E)-5-((3R,5S)-7,7-dimethyl-1,6-dioxaspiro[2.5]octan-5-yl)-3-methylpenta-2,4-dienyl)-1,3-dioxan-5-ylamino)-5-oxopent-3-en-2-yl pivalate] showed an IC50 [1] of 0.34 µM and an IC50 [2] of 1.18 µM.

`CC(=O)O[C@@H](C)CCC(=O)N[C@H]1CO[C@@H](C/C=C(C)/C=C/[C@@H]2C[C@]3(CO3)CC(C)(C)O2)OC1` [Compound 53, (S)-5-((2R,5R)-2-((2E,4E)-5-((3R,5S)-7,7-dimethyl-1,6-dioxaspiro[2.5]octan-5-yl)-3-methylpenta-2,4-dienyl)-1,3-dioxan-5-ylamino)-5-oxopentan-2-yl acetate] gave an IC50 [1] greater than 1 µM and an IC50 [2] greater than 10 µM.
